The values below come from paper PMC6791832, “In vitro inhibition of human red blood cell acetylcholinesterase (AChE) by temephos-oxidized products” (Scientific Reports, 2019).

pIC50: −log10 of the molar value.

In series [1] the target is T1, human red blood cell acetylcholinesterase (RBC AChE) (Homo sapiens, UniProt P22303).
T1 construct: from tissue; host or cells: whole blood (hemolyzed, 1:100 in Triton X-100) from one healthy adult volunteer
The series can be described thus: Human RBC AChE inhibition assay (Ellman method, hemolyzed whole blood). The note with it: for pIC50: hemolyzed samples preincubated with compound for 15 min at 37 °C, three independent experiments in duplicate. It counts as biochemical. As to the method: RBC AChE and BuChE assays were performed on whole human blood and serum, respectively. In this study, all methods were conducted in accordance with guidelines and regulations to comply with the GLP and chemical wastes management established by the Cinvestav-IPN. The sampling protocol was approved by the Bioethics Commission of Nayarit State, Mexico (CEBN/011/2017). The subject gave written informed consent for their participation and blood samples were collected early in the morning. A human blood sample was collected from a healthy adult volunteer from Mexico City.
RBC AChE activity was evaluated according to the method reported by Ellman et al.[12] with some modifications. Briefly, fresh human whole blood samples were diluted (1:100) with Triton X-100 (0.03% in phosphate buffer 0.1 M, pH 7.4). The enzymatic assay media consisted of 500 µL diluted blood, 1 mL of phosphate buffer 0.1 M, pH 7.4, 0.05 mL of DTNB (10 mM), and 5 µL of ethopropazine (6 mM), which were mixed and incubated at 37 °C for 10 min. The reaction was started by the addition of 25 µL of substrate ATCh (28.3 mM) and absorbance was monitored at 436 nm during 3 min with a UV-Vis spectrophotometer (Thermo Scientific GENESYS 10S). AChE activity was corrected for hemoglobin (Hb) content and was reported in U/g Hb. The Hb content was determined at 540 nm using the Drabkin reagent. The molar extinction coefficient of the TNB hydrolysis product was ε = 10,600 M^−1 cm^−1.
To determine the inhibitory effect on human RBC AChE activity, the hemolyzed samples were preincubated with Tem and its metabolites for 15 min at 37 °C. The RBC AChE activity was evaluated as previously described by Bernal-Hernández et al.[13] in three independent experiments conducted in duplicate. Stock solutions of Tem metabolites were individually prepared in ethanol (Tem-SO, 4.14 mM; Tem-dox-SO, 4.44 mM, and Tem-dox-SO2, 4.20 mM). These solutions were used to prepare other diluted solutions in phosphate buffer (0.1 M, pH 7.4) to achieve the following concentrations: 0.1 to 10 μM Tem-SO, 0.05 to 5 μM Tem-dox-SO, and 0.02 to 2 μM Tem-dox-SO2. […] Log IC50, IC50, and R^2 values were estimated from the normalized AChE or BuChE activity with respect to the control assays (absence of the metabolite) and plotted as a function of the logarithm of metabolite concentration using Prism 8 software (GraphPad Software).

The conditions of series [2]: rats, orally administered; cited from earlier work.

T1 sequence (P22303 32-617 isoform P22303-2 limits assumed): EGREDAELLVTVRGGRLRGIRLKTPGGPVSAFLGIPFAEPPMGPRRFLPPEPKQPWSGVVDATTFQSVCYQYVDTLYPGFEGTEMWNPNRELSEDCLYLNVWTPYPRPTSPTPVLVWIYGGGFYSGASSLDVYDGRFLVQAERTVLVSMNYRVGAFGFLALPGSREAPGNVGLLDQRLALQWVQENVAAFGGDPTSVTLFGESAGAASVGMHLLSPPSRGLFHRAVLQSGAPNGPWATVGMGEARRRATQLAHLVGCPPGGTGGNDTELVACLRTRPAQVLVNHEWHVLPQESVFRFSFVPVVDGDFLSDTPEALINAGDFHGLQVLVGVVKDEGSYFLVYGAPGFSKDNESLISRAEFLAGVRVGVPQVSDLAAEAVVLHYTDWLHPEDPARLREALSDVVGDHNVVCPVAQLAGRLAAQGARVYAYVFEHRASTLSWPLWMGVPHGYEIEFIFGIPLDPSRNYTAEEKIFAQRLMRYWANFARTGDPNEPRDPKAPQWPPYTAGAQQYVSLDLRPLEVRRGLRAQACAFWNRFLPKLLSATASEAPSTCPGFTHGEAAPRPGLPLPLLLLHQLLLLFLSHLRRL

On to `COP(=S)(OC)Oc1ccc(Sc2ccc(OP(=S)(OC)OC)cc2)cc1` [Tem, O,O,O′,O′-tetramethyl O,O′-thiodi-p-phenylene bis(phosphorothionate)], for which the “effect on human RBC AChE activity” value in series [1] (even at higher concentrations than 50 µM) is “did not exhibit any effect”. The “absorbed into the bloodstream” value in series [2] is reported as “at least 40%”. For `COP(=S)(OC)Oc1ccc([S+]([O-])c2ccc(OP(=S)(OC)OC)cc2)cc1` [Tem-SO], in series [1], the pIC50 (usually the negative decadic logarithm of the IC50, by convention in mol/L) was 6.26. On the same count and under the same terms, the value for `COP(=O)(OC)Oc1ccc(S(=O)(=O)c2ccc(OP(=O)(OC)OC)cc2)cc1` [Tem-dox-SO2] was 7.60; that for `COP(=O)(OC)Oc1ccc([S+]([O-])c2ccc(OP(=O)(OC)OC)cc2)cc1` [Tem-dox-SO] was 7.01.
